Read-outs that look alike come from different tables or passages of the source.
Tests used:
IRAK4 = IRAK4 (Homo sapiens (Human), UniProt Q9NWZ3); assay: Deep tandem mass tag (TMT) proteomics in OCI-LY10; assay type: cell-based; conditions: OCI-LY10, 8 hours
Description: Total protein was isolated from OCI-LY10 cells treated with 10 nM I-30, 30 nM I-30 and 30 nM 2-{2-[(cyclopropylmethyl)amino]pyridin-4-yl}-N-[3-(difluoromethyl)-1-[4-({[2-(2-{3-[3-methyl-1-(1-methyl-2,6-dioxopiperidin-3-yl)-2-oxo-2,3-dihydro-1H-1,3-benzodiazol-4-yl]propoxy}ethoxy)ethyl]amino}methyl)phenyl]-1H-pyrazol-4-yl]-1,3-oxazole-4-carboxamide for 8 hours. Vehicle (DMSO)-treated cells were used as controls. Protein lysates, 2 biological replicates per condition, were prepared at 4 C in 8M urea, 75 mM NaCl, 1 mM EDTA in 50 mM Tris HCl (pH 8), 10 mM NaF, phosphatase inhibitor cocktail 2 (1:100; Sigma, P5726) and cocktail 3 (1:100; Sigma, P0044), 2 μg/mL aprotinin (Sigma, A6103), 10 μg/mL Leupeptin (Roche, 11017101001), and 1 mM PMSF (Sigma, 78830). Lysates were spun at 20,000 rcf for 10 min and supernatant (containing extracted proteins) was transferred to a clean microcentrifuge tube. Protein concentrations were determined using the Pierce BCA assay. […] Online fractionation was performed using a nanoflow Proxeon EASY-nLC 1200 UHPLC system (Thermo Fisher Scientific) and separated peptides were analyzed on a benchtop Orbitrap Q Exactive plus mass spectrometer (Thermo Fisher Scientific). All data were analyzed using Spectrum Mill software package (Agilent Technologies). […] In total, 10,992 proteins were quantified. […]

OCI-LY10 = assay: CTG Cell Viability Assay - OCI-LY10; assay type: cell-based, human
Method in brief: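 OCI-LY10 cells exposed to 9-dose, 1:3 dilutions from 10 μM top (0.2% DMSO) for 4 days at 37° C, 5% CO2. Viability by CellTiter-Glo luminescence; IC50 from three-parameter logistic fit.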

IKAROS = IKAROS (Homo sapiens (Human), UniProt Q13422+Q96SW2); assay: IKAROS degradation in OCI-LY10 (DC50); assay type: cell-based
OCI-LY3 = OCI-LY3 viability, CTG; assay type: cell-based; conditions: Homo sapiens, MYD88 MUT
SU-DHL2 = SU-DHL2 viability, CTG; assay type: cell-based; conditions: Homo sapiens, SU-DHL-2

IKAROS, sequence (Q13422 whole entry): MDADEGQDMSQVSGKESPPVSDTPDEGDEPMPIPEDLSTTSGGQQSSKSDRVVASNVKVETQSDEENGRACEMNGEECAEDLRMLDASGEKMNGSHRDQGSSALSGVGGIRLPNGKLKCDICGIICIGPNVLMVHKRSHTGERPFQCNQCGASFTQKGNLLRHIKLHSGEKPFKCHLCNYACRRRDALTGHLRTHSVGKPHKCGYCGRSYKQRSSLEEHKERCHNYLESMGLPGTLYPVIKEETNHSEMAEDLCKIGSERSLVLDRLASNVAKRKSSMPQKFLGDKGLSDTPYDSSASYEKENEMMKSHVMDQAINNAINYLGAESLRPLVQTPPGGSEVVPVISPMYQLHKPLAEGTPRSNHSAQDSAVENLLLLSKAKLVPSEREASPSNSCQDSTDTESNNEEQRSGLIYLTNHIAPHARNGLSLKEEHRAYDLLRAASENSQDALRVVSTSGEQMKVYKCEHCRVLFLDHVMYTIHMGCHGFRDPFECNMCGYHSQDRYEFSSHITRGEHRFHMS
IKAROS, sequence (Q96SW2 whole entry): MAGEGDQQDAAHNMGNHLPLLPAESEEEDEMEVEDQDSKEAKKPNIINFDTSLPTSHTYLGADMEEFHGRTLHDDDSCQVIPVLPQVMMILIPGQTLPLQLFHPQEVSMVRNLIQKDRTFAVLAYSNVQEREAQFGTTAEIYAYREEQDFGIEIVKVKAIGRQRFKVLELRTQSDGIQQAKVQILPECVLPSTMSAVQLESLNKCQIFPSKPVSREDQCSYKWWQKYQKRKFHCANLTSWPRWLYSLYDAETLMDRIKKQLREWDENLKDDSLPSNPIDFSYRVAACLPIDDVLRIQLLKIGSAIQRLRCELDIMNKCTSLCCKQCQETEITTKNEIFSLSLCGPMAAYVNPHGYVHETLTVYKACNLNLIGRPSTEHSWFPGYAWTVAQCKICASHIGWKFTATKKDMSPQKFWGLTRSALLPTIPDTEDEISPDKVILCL
IKAROS, sequence (Q16531 whole entry partner): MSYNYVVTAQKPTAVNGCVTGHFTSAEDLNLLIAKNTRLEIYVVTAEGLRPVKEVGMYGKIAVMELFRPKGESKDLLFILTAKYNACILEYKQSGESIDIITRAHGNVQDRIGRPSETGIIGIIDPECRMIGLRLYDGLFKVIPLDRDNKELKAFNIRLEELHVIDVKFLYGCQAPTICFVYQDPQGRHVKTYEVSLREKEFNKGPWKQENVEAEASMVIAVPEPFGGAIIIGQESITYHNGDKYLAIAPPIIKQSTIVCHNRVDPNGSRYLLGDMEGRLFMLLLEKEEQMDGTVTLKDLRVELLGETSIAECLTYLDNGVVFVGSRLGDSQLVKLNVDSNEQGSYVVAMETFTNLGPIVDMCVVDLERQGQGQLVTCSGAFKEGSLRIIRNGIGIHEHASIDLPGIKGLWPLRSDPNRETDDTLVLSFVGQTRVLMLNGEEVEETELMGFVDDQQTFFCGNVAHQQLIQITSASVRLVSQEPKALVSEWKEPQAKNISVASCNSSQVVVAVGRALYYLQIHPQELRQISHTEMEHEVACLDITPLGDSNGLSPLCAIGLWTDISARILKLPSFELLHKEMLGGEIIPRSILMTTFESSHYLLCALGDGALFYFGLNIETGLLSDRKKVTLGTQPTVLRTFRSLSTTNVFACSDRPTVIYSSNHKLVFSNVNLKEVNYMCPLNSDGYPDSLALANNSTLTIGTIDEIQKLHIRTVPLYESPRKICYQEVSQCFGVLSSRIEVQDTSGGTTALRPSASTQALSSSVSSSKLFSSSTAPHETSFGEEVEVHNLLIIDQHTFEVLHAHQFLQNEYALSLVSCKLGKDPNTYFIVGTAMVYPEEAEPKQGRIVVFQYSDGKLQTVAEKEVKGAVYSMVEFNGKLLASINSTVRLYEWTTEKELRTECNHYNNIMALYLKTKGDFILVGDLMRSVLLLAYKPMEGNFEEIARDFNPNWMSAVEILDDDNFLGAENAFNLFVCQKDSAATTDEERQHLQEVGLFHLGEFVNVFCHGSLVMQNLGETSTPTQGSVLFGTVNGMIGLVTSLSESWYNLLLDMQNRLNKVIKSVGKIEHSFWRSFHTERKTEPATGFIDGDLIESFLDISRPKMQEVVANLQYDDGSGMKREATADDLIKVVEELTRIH
IRAK4, sequence (Q9NWZ3 whole entry): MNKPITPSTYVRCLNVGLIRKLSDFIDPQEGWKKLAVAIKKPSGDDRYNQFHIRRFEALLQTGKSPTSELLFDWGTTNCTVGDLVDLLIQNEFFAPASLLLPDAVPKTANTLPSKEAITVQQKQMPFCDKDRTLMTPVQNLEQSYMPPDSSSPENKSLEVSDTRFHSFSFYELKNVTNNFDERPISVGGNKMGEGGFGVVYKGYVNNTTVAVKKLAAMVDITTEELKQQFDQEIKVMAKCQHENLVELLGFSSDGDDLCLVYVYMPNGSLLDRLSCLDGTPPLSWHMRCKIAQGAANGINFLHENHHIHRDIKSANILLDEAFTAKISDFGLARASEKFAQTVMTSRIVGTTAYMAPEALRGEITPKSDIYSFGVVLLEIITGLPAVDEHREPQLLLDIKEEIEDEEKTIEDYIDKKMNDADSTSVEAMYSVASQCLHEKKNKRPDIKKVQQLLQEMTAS

Compound | selectivity for IRAK4 vs. other proteins in OCI-LY10 (proteomics) (IRAK4) | cytotoxicity in OCI-LY10 lymphoma line (OCI-LY10; FIG. 5) | IC50 (OCI-LY10; Homo sapiens, OCI-Ly10, 96 h, OCI-LY10, 4 days, read-out: CTG Cell Viability Assay - OCI-LY10: Average external-IC50) [µM] | DC50 (IKAROS) [µM] | IC50 (OCI-LY3) [µM] | IC50 (SU-DHL2; MYD88 MUT, read-out: SU-DHL2 CTG IC50) [µM] | IC50 (SU-DHL2; MYD88 Mutant Lines, read-out: SU-DHL2 Viability, CTG IC50) [µM]
CN(CCCOCCCc1cccc2c1n(C)c(=O)n2C1CCC(=O)NC1=O)C[C@H]1CC[C@H](n2cc(NC(=O)c3coc(-c4ccnc(NCC5CC5)c4)n3)c(C(F)F)n2)CC1 (mixture of isomers) [I-30, 2-[2-(Cyclopropylmethylamino)-4-pyridyl]-N-[3-(difluoromethyl)-1-[4-[[3-[3-[1-(2,6-dioxo-3-piperidyl)-3-methyl-2-oxo-benzimidazol-4-yl]propoxy]propyl-methyl-amino]methyl]cyclohexyl]pyrazol-4-yl] oxazole-4-carboxamide] | highly selective for IRAK4 vs. >10,000 other proteins | cytotoxic | 0.1 to 0.5 |  |  |  | 
CN(C[C@H]1CC[C@H](n2cc(NC(=O)c3coc(-c4ccnc(NCC5CC5)c4)n3)c(C(F)F)n2)CC1)C1CCN(Cc2cccc3c2n(C)c(=O)n3C2CCC(=O)NC2=O)CC1 (stereo partly shown) [I-75, 2-(2-((cyclopropylmethyl)amino)pyridin-4-yl)-N-(3-(difluoromethyl)-1-((1r,4r)-4-(((1-((1-(2,6-dioxopiperidin-3-yl)-3-methyl-2-oxo-2,3-dihydro-1H-benzo[d]imidazol-4-yl)methyl)piperidin-4-yl)(methyl)amino)methyl)cyclohexyl)-1H-pyrazol-4-yl)oxazole-4-carboxamide] |  |  |  | > 0.1 | 0.18 | 0.29 | 0.29

Reference: patent US11352350B2, “IRAK degraders and uses thereof” (Kymera Therapeutics, Inc., priority 2018, dated 2022)
